Measurements: paper PMC8500670, “A selective WDR5 degrader inhibits acute myeloid leukemia in patient-derived mouse models” (Science translational medicine, 2021)

Experiments:
Assay in all cases: biochemical
Design in all cases: protein methyltransferase inhibition panel, single concentration, duplicate
[1] = target: T1, SMYD3 (Homo sapiens, UniProt Q9H7B4)
T1 sequence (Q9H7B4 1-428): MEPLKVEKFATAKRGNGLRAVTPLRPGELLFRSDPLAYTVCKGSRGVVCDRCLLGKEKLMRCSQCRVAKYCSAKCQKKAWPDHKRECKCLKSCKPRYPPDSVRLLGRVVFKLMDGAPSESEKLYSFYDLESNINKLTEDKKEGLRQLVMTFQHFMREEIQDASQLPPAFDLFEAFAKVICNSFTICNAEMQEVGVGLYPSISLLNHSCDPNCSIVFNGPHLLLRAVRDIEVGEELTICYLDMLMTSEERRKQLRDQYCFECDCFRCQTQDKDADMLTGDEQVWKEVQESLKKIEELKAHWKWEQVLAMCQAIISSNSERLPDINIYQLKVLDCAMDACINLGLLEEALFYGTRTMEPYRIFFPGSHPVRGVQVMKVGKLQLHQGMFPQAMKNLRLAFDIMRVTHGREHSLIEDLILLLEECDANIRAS
Method: (§1) We next assessed selectivity of MS67 against 22 protein methyltransferases (table S2) and a broad panel of common drug targets including 45 kinases (table S3) and 44 G protein–coupled receptors (GPCR), ion channels, and transporters (table S4). […] We subsequently determined that MS67 had moderate binding affinity (Ki = 1.0 ± 0.8 μM) to Sigma 2 receptor (fig. S10).

[2] = target: T2, GLP (Homo sapiens, UniProt Q9H9B1)
T2 construct: gene EHMT1
T2 sequence (Q9H9B1 1-1298): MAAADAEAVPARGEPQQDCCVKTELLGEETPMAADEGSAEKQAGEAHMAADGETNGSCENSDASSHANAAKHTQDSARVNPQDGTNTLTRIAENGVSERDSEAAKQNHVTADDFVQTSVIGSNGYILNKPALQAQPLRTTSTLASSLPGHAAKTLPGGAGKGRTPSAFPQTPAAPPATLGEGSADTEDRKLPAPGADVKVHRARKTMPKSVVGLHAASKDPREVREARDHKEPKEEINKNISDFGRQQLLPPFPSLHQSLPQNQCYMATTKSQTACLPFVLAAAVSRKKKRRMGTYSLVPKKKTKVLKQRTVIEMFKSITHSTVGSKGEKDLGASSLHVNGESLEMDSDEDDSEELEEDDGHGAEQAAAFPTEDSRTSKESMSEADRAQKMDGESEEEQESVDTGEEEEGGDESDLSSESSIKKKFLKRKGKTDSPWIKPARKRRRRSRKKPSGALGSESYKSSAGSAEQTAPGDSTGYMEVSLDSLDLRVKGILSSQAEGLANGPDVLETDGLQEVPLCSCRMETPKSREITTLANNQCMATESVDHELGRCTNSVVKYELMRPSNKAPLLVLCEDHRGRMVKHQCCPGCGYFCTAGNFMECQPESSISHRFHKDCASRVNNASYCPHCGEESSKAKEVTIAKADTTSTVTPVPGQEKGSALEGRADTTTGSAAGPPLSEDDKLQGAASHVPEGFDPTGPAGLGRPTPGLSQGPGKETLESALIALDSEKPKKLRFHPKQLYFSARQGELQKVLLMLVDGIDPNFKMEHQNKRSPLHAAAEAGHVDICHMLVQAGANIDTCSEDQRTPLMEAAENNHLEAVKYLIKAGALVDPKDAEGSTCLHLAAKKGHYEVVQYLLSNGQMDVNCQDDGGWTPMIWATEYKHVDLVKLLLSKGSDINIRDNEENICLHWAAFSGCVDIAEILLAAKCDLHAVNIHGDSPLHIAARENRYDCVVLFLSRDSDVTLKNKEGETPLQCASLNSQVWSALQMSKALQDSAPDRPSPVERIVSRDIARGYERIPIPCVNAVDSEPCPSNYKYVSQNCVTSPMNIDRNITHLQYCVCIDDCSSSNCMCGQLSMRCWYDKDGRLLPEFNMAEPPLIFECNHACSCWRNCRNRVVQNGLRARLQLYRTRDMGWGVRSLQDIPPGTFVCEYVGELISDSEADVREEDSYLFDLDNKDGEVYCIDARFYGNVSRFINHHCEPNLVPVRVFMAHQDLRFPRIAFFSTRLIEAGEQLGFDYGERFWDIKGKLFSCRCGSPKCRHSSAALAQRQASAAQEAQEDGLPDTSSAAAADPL
Method: as §1

[3] = target: SETD2 (Homo sapiens, UniProt Q9BYW2)
Method: as §1

[4] = target: T3, PRMT4 (Homo sapiens, UniProt Q86X55)
T3 construct: gene CARM1
T3 sequence (Q86X55 1-608): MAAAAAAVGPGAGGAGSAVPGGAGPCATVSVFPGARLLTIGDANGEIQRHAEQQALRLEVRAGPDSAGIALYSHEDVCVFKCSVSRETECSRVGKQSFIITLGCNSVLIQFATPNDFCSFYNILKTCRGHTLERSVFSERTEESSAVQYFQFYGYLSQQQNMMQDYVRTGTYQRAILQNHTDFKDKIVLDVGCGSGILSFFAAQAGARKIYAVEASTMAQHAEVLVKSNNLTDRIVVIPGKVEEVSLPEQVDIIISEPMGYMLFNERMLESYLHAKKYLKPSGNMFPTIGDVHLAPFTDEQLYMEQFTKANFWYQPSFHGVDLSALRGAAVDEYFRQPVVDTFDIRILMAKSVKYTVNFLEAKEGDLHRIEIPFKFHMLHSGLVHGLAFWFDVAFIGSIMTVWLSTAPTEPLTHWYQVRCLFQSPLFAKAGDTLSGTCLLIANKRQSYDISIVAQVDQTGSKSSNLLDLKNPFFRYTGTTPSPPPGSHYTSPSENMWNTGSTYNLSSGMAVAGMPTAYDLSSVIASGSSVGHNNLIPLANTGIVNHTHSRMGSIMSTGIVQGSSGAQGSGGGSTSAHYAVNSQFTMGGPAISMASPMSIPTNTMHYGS
Method: as §1

[5] = target: SUV39H2 (Homo sapiens, UniProt Q9H5I1)
Method: as §1

Measured: inhibition at 10 µM

Chain of SUV39H2 (Q9H5I1 whole entry): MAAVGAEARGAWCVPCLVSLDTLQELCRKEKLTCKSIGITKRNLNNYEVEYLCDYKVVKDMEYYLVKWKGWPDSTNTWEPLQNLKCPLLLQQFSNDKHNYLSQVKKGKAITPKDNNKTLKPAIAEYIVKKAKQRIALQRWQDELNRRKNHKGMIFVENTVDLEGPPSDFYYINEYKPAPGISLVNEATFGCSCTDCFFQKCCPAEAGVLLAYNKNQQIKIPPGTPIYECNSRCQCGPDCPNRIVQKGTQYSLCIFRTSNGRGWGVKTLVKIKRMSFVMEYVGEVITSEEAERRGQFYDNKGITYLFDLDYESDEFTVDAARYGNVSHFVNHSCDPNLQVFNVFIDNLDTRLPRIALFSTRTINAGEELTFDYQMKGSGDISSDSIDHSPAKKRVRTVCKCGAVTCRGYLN
Chain of SETD2 (Q9BYW2 whole entry): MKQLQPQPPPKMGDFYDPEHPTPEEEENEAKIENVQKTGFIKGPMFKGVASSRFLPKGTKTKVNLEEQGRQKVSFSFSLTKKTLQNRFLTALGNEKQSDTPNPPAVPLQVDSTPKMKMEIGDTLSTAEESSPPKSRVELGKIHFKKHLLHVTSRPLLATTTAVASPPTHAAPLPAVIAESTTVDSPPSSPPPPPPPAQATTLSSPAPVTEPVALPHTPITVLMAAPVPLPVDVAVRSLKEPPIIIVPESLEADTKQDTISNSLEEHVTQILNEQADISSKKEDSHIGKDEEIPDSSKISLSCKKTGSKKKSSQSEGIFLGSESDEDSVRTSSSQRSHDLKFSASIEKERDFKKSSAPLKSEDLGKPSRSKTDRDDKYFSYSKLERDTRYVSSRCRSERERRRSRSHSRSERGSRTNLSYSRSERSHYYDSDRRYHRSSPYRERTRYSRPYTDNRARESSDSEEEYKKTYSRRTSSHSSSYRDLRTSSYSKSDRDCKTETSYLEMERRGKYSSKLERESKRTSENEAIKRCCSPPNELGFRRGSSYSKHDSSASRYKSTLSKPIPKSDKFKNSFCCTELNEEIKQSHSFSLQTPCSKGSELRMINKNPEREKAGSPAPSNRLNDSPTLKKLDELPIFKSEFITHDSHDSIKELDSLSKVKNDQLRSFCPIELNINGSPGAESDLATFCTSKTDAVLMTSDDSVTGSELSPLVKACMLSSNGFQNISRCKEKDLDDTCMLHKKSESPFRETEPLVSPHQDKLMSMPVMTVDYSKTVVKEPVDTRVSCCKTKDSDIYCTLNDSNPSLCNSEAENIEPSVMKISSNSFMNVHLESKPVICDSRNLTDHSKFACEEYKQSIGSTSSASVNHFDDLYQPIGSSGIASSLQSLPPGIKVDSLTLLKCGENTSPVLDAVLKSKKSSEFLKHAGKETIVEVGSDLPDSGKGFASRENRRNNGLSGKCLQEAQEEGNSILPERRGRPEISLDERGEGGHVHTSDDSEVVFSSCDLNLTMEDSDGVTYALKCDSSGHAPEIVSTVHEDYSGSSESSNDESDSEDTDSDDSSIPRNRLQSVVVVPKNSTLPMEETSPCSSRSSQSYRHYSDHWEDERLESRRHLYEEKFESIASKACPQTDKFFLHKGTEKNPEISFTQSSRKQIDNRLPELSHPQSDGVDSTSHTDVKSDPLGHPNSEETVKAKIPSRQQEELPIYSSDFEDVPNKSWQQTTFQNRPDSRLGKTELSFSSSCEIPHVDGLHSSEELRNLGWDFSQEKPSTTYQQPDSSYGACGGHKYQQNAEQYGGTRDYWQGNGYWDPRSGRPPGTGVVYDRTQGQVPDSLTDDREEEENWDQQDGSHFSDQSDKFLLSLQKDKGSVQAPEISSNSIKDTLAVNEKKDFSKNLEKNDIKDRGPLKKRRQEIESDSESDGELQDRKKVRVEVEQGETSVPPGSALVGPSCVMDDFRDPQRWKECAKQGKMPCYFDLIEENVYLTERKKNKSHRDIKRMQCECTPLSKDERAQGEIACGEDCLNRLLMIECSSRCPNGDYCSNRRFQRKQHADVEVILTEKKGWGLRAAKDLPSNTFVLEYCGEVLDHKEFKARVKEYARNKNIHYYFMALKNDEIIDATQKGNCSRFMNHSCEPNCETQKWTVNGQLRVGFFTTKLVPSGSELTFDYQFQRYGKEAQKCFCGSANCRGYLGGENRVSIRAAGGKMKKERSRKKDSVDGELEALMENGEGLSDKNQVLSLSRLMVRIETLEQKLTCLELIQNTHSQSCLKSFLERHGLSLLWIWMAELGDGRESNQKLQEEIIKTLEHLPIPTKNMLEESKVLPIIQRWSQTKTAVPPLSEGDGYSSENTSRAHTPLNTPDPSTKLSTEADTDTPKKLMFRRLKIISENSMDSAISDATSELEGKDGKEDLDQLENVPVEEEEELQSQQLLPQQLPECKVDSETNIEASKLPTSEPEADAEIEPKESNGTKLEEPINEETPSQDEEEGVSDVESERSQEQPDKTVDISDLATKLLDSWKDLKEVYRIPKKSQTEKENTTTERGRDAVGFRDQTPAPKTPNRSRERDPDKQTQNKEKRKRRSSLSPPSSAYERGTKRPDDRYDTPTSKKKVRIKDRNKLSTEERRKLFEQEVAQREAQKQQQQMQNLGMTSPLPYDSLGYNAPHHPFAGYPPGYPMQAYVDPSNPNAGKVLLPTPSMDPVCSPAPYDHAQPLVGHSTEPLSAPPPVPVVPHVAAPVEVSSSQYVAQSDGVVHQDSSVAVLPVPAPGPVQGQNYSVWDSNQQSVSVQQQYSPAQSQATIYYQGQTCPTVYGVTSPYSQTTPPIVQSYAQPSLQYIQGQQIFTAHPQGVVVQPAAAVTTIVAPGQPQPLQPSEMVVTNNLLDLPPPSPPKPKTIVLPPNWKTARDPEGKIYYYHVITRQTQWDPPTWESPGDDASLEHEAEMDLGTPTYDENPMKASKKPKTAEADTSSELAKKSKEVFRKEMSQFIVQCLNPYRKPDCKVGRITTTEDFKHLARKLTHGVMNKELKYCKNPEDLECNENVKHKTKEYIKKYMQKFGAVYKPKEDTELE

Cc1ncsc1-c1ccc([C@H](C)NC(=O)[C@@H]2C[C@@H](O)CN2C(=O)[C@@H](NC(=O)CNC(=O)c2ccc(F)c(-c3ccc(N4C[C@@H](C)N(C)[C@@H](C)C4)c(NC(=O)c4c[nH]c(=O)cc4C(F)(F)F)c3)c2)C(C)(C)C)cc1 [MS67]
< 10%: [1] | [2] | [3] | [4] | [5]
